Experimental data as given in patent publication US20020111314A1, “Novel stimulation of gene expression and protein synthesis of heat shock protein 72/73 (Hsp 70)” (The Trustees of Columbia University, priority 1995, published 2002).
Square brackets hold non-standard residues; d marks the D form. Peptide text beside a SMILES is read from it. Nle = CCCC[C@H](N)C(=O)O

What was measured:
[1] = system: Hsp70; assay: Hsp70 induction in HepG2 cells ([3H]-leucine labeling, denaturing immunoprecipitation); format: cell-based, human; details: for Hsp70 levels after removal of ALLN: 4-hour preincubation
Description: HepG2 cells were grown up to 95% confluence and then preincubated for 4 hours in a 37° C. incubator with serum-free minimum essential medium (MEM), followed by radiolabeling with 3H-leucine (150 μCi/ml) dissolved in serum-free, leucine-free medium. Preincubation and labeling medium each contained 1.5% bovine serum albumin (BSA) plus different concentrations of ALLN as indicated. After labeling, cells were collected and lysed, and Hsp70 was immunoprecipitated under denaturing conditions as described under Experimental Details. Cell lysates containing an equal amount of TCA-insoluble radioactivity were used for immunoprecipitation. (A): The immunoprecipitates were analyzed by sodium dodecyl sulfate-polyacryamide gel electrophoresis (SDS-PAGE) and fluorography. Numbers on the left-hand side denote molecular markers. (B): The Hsp70 radioactivity was quantitated by scintillation counting and plotted. All the values were presented as means±SD from three individual culture dishes.
FIGS. 3A-3B: Effects of the other protease inhibitors on Hsp70 biosynthesis in HepG2 cells. HepG2 cells were preincubated in serum-free MEM containing either 1.5% BSA alone (Control), or BSA plus 40 μg/ml of ALLN, 40 μg/ml of ALLM, 50 μg/ml of leupeptin, 50 μg/ml of pepstatin A, 25 μg/ml of E-64d, 1 mM of phenylmethylsulfonyl fluoride (PMSF), 100 KIU/ml of apotinin, 1 mM of Benzamidine (Benz), 200 μM of calpain inhibitor peptide (CIP). Radiolabeling (in the presence of protease inhibitors), lysis and immunoprecipitation were performed as described in FIG. 1. The Hsp70 specific radioactivity (A) and the amount of total incorporated radioactivity (TCA-cpm) (B) were compared with each other. All the values were presented as the mean±SD from three individual culture dishes.
FIGS. 9A-9B: Effects of proteasome inhibitors on Hsp70 induction. HepG2 cells were preincubated with the proteasome inhibitors MG132 at a final concentration of either 10 μM or 30 μM (A), or lactacystin at 10 μM (B) for 4 hours under conditions described in FIG. 3. These cells were then subjected to radiolabeling (30 min), cell lysis, and immunoprecipitation with anti-Hsp70 antibody. The experiments with MG132 (A) were repeated twice; the effects of lactacystin (B) were studied in triplicate culture dishes.
ALLN, leupeptin, mouse anti-human Hsp72/73 monoclonal antibody, a secondary antibody conjugated with horseradish peroxidase (HRP) (goat anti-rabbit immunoglubin G [IgG]), and rabbit anti-rat IgG antibody were from Boehringer Mannheim Co. Anti-Human Hsp25 and anti-human Hsp60 monoclonal antibodies, ALLM, Calpain inhibitor peptide (CIP), dimethyl sulfoxide (DMSO) and dithiothreitol (DTT) were from Sigma. Human Hsp70 oligonucleotide probe was from Oncogene Science. This oligonucleotide was ^32P labeled at the 5′-end by T4 Kinase, which was from Biolabs. ^32P was from ICN Pharmaceutical Inc. L-[4,5-^3H] leucine was from Amersham Co. Anti-human Bip (immunoglobulin heavy chain binding protein, also called Grp78), anti-human Hsp27, anti-human Hsp60, and anti-human Hsp90 monoclonal antibodies were from Stress Genes. Anti-human Hsp86 and Hsp104 antibodies were from Affinity Bioreagent Inc. Nitrocellular transfer and immobilization membranes were from Schleicher & Schuell, Keene, N.H. RNA extraction kits were from Biotect, Tex. The polyclonal antibody against the human HSF1 protein was a generous gift from Dr. Carl Wu of the National Institute of Health (Rabindran, et al., 1993). Ethylene glycol bis(succunimidylsuccinate) (EGS) was from Pierce. Cbz-leucyl-leucyl-leucinal (MG132) was a gift of Dr. H. Ploegh at the Massachusetts Institute of Technology. All the other tissue culture supplies and chemicals were obtained from supplies as previously described (Dixon, et al., 1991). The HepG2 cell culture conditions were maintained as previously described (Dixon, et al., 1991).

[2] = system: cysteine proteases, calpain and cathepsin B; details: Rock, et al., 1994; cited from earlier work

Question: For `CCCC[C@@H](C=O)NC(=O)[C@H](CC(C)C)NC(=O)[C@H](CC(C)C)NC(C)=O` [ALLN, N-acetyl-leucyl-leucyl-norleucinal] (Ac-Leu-Leu-[Nle]-aldehyde), which “Hsp70 levels after removal of ALLN” value ([1]; HepG2, end of a 2-hour wash) is on record?
Answer: Its value is 25 fold.

Question: What about the “Hsp70 levels after removal of ALLN” value ([1]; HepG2, end of a 6-hour wash) of the same compound?
Answer: The value was 8 fold.

Question: And the “Hsp70 levels after removal of ALLN” value ([1]; HepG2, end of an 8-hour wash)?
Answer: The value was 4 fold.

Question: What about the “increment of newly synthesized Hsp70 levels compared with untreated cells” value ([1]; HepG2, 30 min labeling, ALLN 40 μg/ml, data from several experiments) of the same compound?
Answer: Its value is ~30 fold.

Question: What about the “response of cellular Hsp70 levels to ALLN dose” value ([1]; HepG2, 4 hours, different doses (FIG. 1)) of the same compound?
Answer: Its value is “dose-dependent response”.

Question: And the “induction of Hsp70 by protease inhibitors (FIG. 3A)” value ([1]; HepG2, 4 h pre-treatment, ALLN 40, ALLM 40, leupeptin 50, pepstatin A 50, E-64d 25 μg/ml, PMSF 1 mM, aprotinin 100 KIU/ml)?
Answer: Its value is “significantly induce”.

Question: And the “increase in rate of incorporation of [3H]-leucine into Hsp70” value ([1]; HepG2, 4 h preincubation with ALLN 40 μg/ml, labeling 10-60 min, every time point)?
Answer: The value was “about 25 fold”.

Question: What about the Hsp70 levels induced ([1]; HepG2, low concentration of ALLN 10 μg/ml, 4 h pre-treatment) of the same compound?
Answer: Its Hsp70 levels induced is “more than 9 fold”.

Question: What about the “induction of Hsp70 levels above baseline” value ([1]; HepG2 cells and human endothelial cells) of the same compound?
Answer: The value was “up to 30 fold”.

Question: And the “activities against calpain and cathepsin B” value [2]?
Answer: Its value is “significant activities”.
